From patent publication EP4741386A1 (Jiangsu Yahong Meditech Co., Ltd., priority 2023, dated 2025)

Assays:
[1] = target: T1, Recombinant human His6-USP1/His6-UAF1 complex protein (Homo sapiens, UniProt O94782); assay: In vitro inhibitory activity against USP1 (Ubiquitin Rhodamine 110 fluorescence detection, 384-well plate); format: biochemical; conditions: Ub-Rho substrate, 1 hour pre-incubation, read after 30 minutes
T1 construct: His6; purchased R&D E-568-050
Method in brief: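 Fluorescence assay measuring inhibition of recombinant human His6-USP1/His6-UAF1 complex with Ubiquitin-Rhodamine 110 substrate. Compounds held as 50 mM stocks in 100% DMSO and dispensed by acoustic transfer into modified Tris assay buffer.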

MDA-MB-436 = assay: CTG experiment for cell viability (CellTiter-Glo, 96-well plate, 7 days); format: cell-based; conditions: Homo sapiens, MDA-MB-436, 168 h, MDA-MB-436 cells, 7 days culture with compound
Method in brief: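 MDA-MB-436 cells in DMEM were plated in 96-well format, treated with compounds, and cultured 7 days at 37°C. After removing the medium, cells were given PBS plus CellTiter-Glo reagent, incubated 10 min at room temperature, and luminescence was read. Curves were fitted as for the enzyme assay.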

T1 sequence (O94782 whole entry): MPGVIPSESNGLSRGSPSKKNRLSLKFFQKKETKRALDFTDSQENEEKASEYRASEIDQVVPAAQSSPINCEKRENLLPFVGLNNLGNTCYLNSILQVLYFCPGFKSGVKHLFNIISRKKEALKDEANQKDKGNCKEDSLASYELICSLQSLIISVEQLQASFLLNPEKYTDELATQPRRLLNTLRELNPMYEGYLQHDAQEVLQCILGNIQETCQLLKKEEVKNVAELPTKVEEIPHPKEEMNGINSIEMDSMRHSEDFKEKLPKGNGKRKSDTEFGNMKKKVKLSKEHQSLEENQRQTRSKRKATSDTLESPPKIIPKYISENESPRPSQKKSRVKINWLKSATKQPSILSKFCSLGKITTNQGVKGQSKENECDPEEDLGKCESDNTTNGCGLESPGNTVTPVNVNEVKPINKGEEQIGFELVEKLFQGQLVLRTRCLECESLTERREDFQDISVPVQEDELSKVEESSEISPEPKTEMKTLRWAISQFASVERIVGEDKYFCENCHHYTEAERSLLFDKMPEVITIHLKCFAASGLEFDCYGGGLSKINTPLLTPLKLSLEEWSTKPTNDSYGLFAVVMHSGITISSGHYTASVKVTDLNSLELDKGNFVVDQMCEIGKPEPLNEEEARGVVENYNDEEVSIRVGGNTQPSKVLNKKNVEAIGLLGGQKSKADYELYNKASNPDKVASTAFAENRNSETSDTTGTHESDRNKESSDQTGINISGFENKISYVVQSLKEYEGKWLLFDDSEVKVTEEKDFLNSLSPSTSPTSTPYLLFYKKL
T1 sequence (Q8TAF3 whole entry partner): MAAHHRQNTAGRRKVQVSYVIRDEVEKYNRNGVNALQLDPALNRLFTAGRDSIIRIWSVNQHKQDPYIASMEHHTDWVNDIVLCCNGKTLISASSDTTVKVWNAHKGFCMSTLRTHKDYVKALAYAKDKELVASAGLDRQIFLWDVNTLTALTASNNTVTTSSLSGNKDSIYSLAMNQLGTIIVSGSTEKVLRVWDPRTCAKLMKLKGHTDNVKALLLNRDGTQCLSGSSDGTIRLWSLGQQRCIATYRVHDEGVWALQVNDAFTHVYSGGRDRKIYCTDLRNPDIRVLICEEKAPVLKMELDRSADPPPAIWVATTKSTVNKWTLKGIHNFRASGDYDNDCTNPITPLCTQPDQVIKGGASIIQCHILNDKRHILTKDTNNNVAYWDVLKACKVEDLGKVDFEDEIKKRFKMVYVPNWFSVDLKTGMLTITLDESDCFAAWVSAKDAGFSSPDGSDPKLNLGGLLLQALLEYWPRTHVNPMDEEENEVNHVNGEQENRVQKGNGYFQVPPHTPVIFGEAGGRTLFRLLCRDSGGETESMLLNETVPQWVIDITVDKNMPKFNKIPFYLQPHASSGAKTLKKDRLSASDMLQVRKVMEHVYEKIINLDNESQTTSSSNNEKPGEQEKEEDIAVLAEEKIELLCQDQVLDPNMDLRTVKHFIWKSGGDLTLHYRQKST

Row | IC50 [1] [nM] | IC50 (MDA-MB-436) [nM] | Compound
1 | 1.3 | 479 | COC(=O)Cc1cnc(-c2ccccc2C(C)C)nc1NCc1ccc(-c2nc(C(F)(F)F)cn2C)cc1 [Example 91, Methyl 2-(2-(2-isopropylphenyl)-4-((4-(1-methyl-4-(trifluoromethyl)-1H-imidazol-2-yl)benzyl)amino)pyrimidin-5-yl)acetate]
2 | 3.1 | 0.5 | COc1ncnc(C2CC2)c1-c1ncc(Cl)c(NCc2ccc(-c3nc(C(F)(F)F)cn3C3CC3)cc2)n1 [Example 125, 5-Chloro-4'-cyclopropyl-N-(4-(1-cyclopropyl-4-(trifluoromethyl)-1H-imidazol-2-yl)benzyl)-6'-methoxy-[2,5'-bipyrimidin]-4-amine]
3 | 9.2 | 709 | COc1cc(CNc2nc(-c3ccccc3C(C)C)ncc2OC)ccc1-n1nc(C(F)(F)F)cc1C [Example 69, 2-(2-Isopropylphenyl)-5-methoxy-N-(3-methoxy-4-(5-methyl-3-(trifluoromethyl)-1H-pyrazol-1-yl)benzyl)pyrimidin-4-amine]
4 | 91.5 | 533 | COc1ncnc(C2CC2)c1-c1ncc2c(n1)N(CC1CCN(c3nc(C(F)(F)F)cn3C)CC1)CCO2 [Example 20, 2-(4-Cyclopropyl-6-methoxypyrimidin-5-yl)-8-((1-(1-methyl-4-(trifluoromethyl)-1H-imidazol-2-yl)piperidin-4-yl)methyl)-7,8-dihydro-6H-pyrimido[5,4-b][1,4] oxazine]
5 | 19 | 21.4 | COc1cnc(-c2c(OC)ncnc2C2CC2)nc1NC[C@H]1CC[C@H](c2nc(C(F)(F)F)cn2C)CC1 [Example S20]
6 | 1.2 | 2 | COc1cnc(-c2ccccc2C(C)C)nc1NC[C@H]1CC[C@H](c2nc(C(F)(F)F)cn2C)CC1 [Example 6, 2-(2-Isopropylphenyl)-5-methoxy-N-(((1R,4R)-4-(1-methyl-4-(trifluoromethyl)-1H-imidazol-2-yl)cyclohexyl)methyl)pyrimidin-4-amine]
7 | 9 | 704 | COc1cc(CNc2nc(-c3ccccc3C(C)C)nc3ccoc23)ccc1-n1nc(C(F)(F)F)cc1C [Example 84, 2-(2-Isopropylphenyl)-N-(3-methoxy-4-(5-methyl-3-(trifluoromethyl)-1H-pyrazol-1-yl)benzyl)furo[3,2-d]pyrimidin-4-amine]
8 | 3.3 | 30 | COc1cnc(-c2ccccc2C(C)C)nc1NCC1CCC(c2ccccn2)CC1 (stereo not shown) [Example 63, 2-(2-Isopropylphenyl)-5-methoxy-N-((4-(pyridin-2-yl)cyclohexyl)methyl)pyrimidin-4-amine]
9 | 12 | 954 | COc1cc(CNc2nc(-c3ccccc3C3CC3)ncc2OC)ccc1-c1nc(C(F)(F)F)cn1C [Example 172, 2-(2-Cyclopropylphenyl)-5-methoxy-N-(3-methoxy-4-(1-methyl-4-(trifluoromethyl)-1H-imidazol-2-yl)benzyl)pyrimidin-4-amine]
10 | 10.4 | 88.1 | COc1ncnc(C2CC2)c1-c1ncc(OC(C)C)c(NCc2ccc(-c3nc(C(F)(F)F)cn3C)cc2)n1 [Example 111, 4'-Cyclopropyl-5-isopropoxy-6'-methoxy-N-(4-(1-methyl-4-(trifluoromethyl)-1H-imidazol-2-yl)benzyl)-[2,5'-bipyrimidin]-4-amine]
11 | 1.4 | 3.3 | C#Cc1cnc(-c2c(C)cnn2C(C)C)nc1NCc1ccc(-c2nc(C(F)(F)F)cn2C)cc1 [Example 203, 5-Ethynyl-2-(1-isopropyl-4-methyl-1H-pyrazol-5-yl)-N-(4-(1-methyl-4-(trifluoromethyl)-1H-imidazol-2-vl)benzyl)pyrimidin-4-amine]
12 | 22.4 | 950 | CC(C)c1ccccc1-c1nc(NCc2ccc(-c3ccccn3)cc2)c2[nH]ccc2n1 [Example 36, 2-(2-Isopropylphenyl)-N-(4-(pyridin-2-yl)benzyl)-5H-pyrrolo[3,2-d]pyrimidin-4-amine]
13 | 7.4 | 45.5 | COc1ncnc(C2CC2)c1-c1ncc(C#N)c(NCc2ccc(-c3nc(C(F)(F)F)cn3C)cc2)n1 [Example 131, 4'-Cyclopropyl-6'-methoxy-4-((4-(1-methyl-4-(trifluoromethyl)-1H-imidazol-2-yl)benzyl)amino)-[2,5'-bipyrimidine]-5-carbonitrile]
14 | 12 | 82.1 | Cn1cc(C(F)(F)F)nc1-c1ccc(CNc2nc(-c3cncnc3C3CC3)nc3ccoc23)cc1 [Example 196, 2-(4-Cyclopropylpyrimidin-5-yl)-N-(4-(1-methyl-4-(trifluoromethyl)-1H-imidazol-2-yl)benzyl)furo[3,2-d]pyrimidin-4-amine]
15 | 19 | 731 | COc1cnc(-c2cccc3c2N(C)CC3)nc1NCc1ccc(-c2nc(C(F)(F)F)cn2C)cc1 [Example 145, 5-Methoxy-N-(4-(1-methyl-4-(trifluoromethyl)-1H-imidazol-2-yl)benzyl)-2-(1-methylindolin-7-yl)pyrimidin-4-amine]
16 | 1.2 | 1.8 | CC(C)c1ccccc1-c1nc(NCc2ccc(-c3nc(C(F)(F)F)cn3C)cc2)c2occc2n1 [Example 33, 2-(2-Isopropylphenyl)-N-(4-(1-methyl-4-(trifluoromethyl)-1H-imidazol-2-yl)benzyl)furo[3,2-d]pyrimidin-4-amine]
17 | 1.7 | 39.4 | COc1cnc(-c2ccccc2N(C)C)nc1NCc1ccc(-c2nc(C(F)(F)F)cn2C)cc1 [Example 159, 2-(2-(Dimethylamino)phenyl)-5-methoxy-N-(4-(1-methyl-4-(trifluoromethyl)-1H-imidazol-2-yl)benzyl)pyrimidin-4-amine]
18 | 23 | 87.2 | COc1ncnc(C2CC2)c1-c1nc(NCc2ccc(-c3nc(C(F)(F)F)cn3C)s2)c2occc2n1 [Example 113, 2-(4-Cyclopropyl-6-methoxypyrimidin-5-yl)-N-((5-(1-methyl-4-(trifluoromethyl)-1H-imidazol-2-yl)thiophen-2-yl)methyl)furo[3,2-d]pyrimidin-4-amine]
19 | 19.4 | 536 | COc1ncnc(C2CC2)c1-c1nc(NCc2ccc(OCc3ccccn3)cc2)c2occc2n1 [Example 116, 2-(4-Cyclopropyl-6-methoxypyrimidin-5-yl)-N-(4-(pyridin-2-ylmethoxy)benzyl)furo[3,2-d]pyrimidin-4-amine]
20 | 3.6 | 87.1 | COc1cc(-c2nc(C(F)(F)F)cn2C)ccc1CNc1nc(-c2ccccc2C2CC2)nc2ccoc12 [Example 175, 2-(2-Cyclopropylphenyl)-N-(2-methoxy-4-(1-methyl-4-(trifluoromethyl)-1H-imidazol-2-yl)benzyl)furo[3,2-d]pyrimidin-4-amine]
21 | 2.2 | 8.7 | COc1cnc(-c2c(OC)ncnc2C2CC2)nc1NCC12C3C4C1C1C2C3C41c1nc(C(F)(F)F)cn1C (stereo not shown) [Example 215]
22 | 6.8 | 3.5 | COc1cnc(-c2c(OC)ncnc2C2CC2F)nc1N(C)C[C@H]1CC[C@H](c2nc(C(F)(F)F)cn2C)CC1 (stereo partly shown) [Example S35]
23 | 1.1 | 29.4 | CC(C)c1ccccc1-c1ncc(OC(F)F)c(NCc2ccc(-c3nc(C(F)(F)F)cn3C)cc2)n1 [Example 86, 5-(Difluoromethoxy)-2-(2-isopropylphenyl)-N-(4-(1-methyl-4-(trifluoromethyl)-1H-imidazol-2-yl)benzyl)pyrimidin-4-amine]
24 | 3.8 | 20.4 | COc1cnc(-c2c(Cl)cnn2C2CC2)nc1NCc1ccc(-c2nc(C(F)(F)F)cn2C)cc1 [Example 192, 2-(4-Chloro-1-cyclopropyl-1H-pyrazol-5-yl)-5-methoxy-N-(4-(1-methyl-4-(trifluoromethyl)-1H-imidazol-2-yl)benzyl)pyrimidin-4-amine]
25 | 6.1 | 35.9 | COc1cnc(-c2c(Cl)cnn2C(C)C)nc1N(C)CC12CCC(c3nc(C(F)(F)F)cn3C)(CC1)OC2 [Example S17, 2-(4-Chloro-1-isopropyl-1H-pyrazol-5-yl)-5-methoxy-N-methyl-N-((1-(1-methyl-4-(trifluoromethyl)-1H-imidazol-2-yl)-2-oxabicyclo[2.2.2]oct-4-yl)methyl)pyrimidin-4-amine]
26 | 6.1 | 13.2 | COc1ncnc(C2CC2)c1-c1ncc(Cl)c(NCc2ccc(-c3nc(C(F)(F)F)cn3C)cc2)n1 [Example 124, 5-Chloro-4'-cyclopropyl-6'-methoxy-N-(4-(1-methyl-4-(trifluoromethyl)-1H-imidazol-2-yl)benzyl)-[2,5'-bipyrimidin]-4-amine]
27 | 3.1 | 0.7 | COc1cnc(-c2c(OC)ncnc2C2CC2(F)F)nc1N(C)CC1CCC(c2nc(C(F)(F)F)cn2C)CC1 [Example S49, 4'-(2,2-difluorocyclopropyl)-5,6'-dimethoxy-N-methyl-N-((1R,4R)-4-(1-methyl-4-(trifluoromethyl)-1H-imidazol-2-yl)cyclohexyl)methyl)-[2,5'-bipyrimidin]-4-amine]
28 | 2.3 | 13.5 | COc1cnc(-c2c(Cl)cnn2C(C)C)nc1NCC1CCN(c2nc(C(F)(F)F)cn2C)CC1 [Example 163, 2-(4-Chloro-1-isopropyl-1H-pyrazol-5-yl)-5-methoxy-N-((1-(1-methyl-4-(trifluoromethyl)-1H-imidazol-2-yl)piperidin-4-yl)methyl)pyrimidin-4-amine]
29 | 2.8 | 336 | CC(C)c1ccccc1-c1nc(NCc2ccc(-c3ccccn3)cc2)c2occc2n1 [Example 32, 2-(2-isopropylphenyl)-N-(4-(pyridin-2-yl)benzyl)furo [3,2-d] pyrimidin-4-amine]
